Measurements as given in US10376520B2, “Methods for the treatment of cardiovascular disorders” (Galapagos NV, priority 2015, dated 2019).

System: RA patients
Assay: Atherogenic index, Study 1 (RA patients, add-on to MTX)
Type: in vivo, human
Conditions: for Atherogenic index Mean CFB - 24 weeks results / Atherogenic index Mean percentage CFB - 24 weeks results / Atherogenic index Median CFB - 24 weeks results: 200 mg q.d. continued over 24 weeks
Protocol: As used herein, the term ‘atherogenic index’ refers to
Double-blind, placebo-controlled add on study in subjects with moderately to severely active RA who have an inadequate response to methotrexate (MTX) (oral or parenteral).
Compound 1 (dosed as a [Compound 1:HCl:3H2O]) is dosed for twelve weeks once daily (q.d.) (50 mg, 100 mg or 200 mg) or twice daily (b.i.d.) (25 mg, 50 mg or 100 mg); or placebo.
At Week 12, the subjects on placebo who have not achieved 20% improvement in swollen joint count (SJC66) and tender joint count (TJC68) are re-randomized automatically to receive Compound 1 (dosed as a [Compound 1:HCl:3H2O]) either at 100 mg q.d. or 50 mg b.i.d. doses in a blinded fashion; subjects on 50 mg q.d. who have not achieved 20% improvement in SJC66 and TJC68 will be assigned to 100 mg q.d. and subjects on 25 mg b.i.d. that have not achieved a 20% improvement in SJC66 and TJC68 will be assigned to 50 mg b.i.d. Subjects who switch treatment at week 12 are handled as if they discontinued at week 12 for the purpose of statistical analysis, whereas subjects in the other groups will maintain their randomized treatment until Week 24.
The atherogenic index has been identified to be a good predictor of cardiovascular disorders risks and is calculated as follows: […]

[1] = 2 × 25 mg (b.i.d. group), week 1
[2] = 2 × 25 mg (b.i.d. group), week 2
[3] = 2 × 25 mg (b.i.d. group), week 4
[4] = 2 × 25 mg (b.i.d. group), week 8
[5] = 2 × 25 mg (b.i.d. group), week 12
[6] = 2 × 50 mg (b.i.d. group), week 1
[7] = 2 × 50 mg (b.i.d. group), week 2
[8] = 2 × 50 mg (b.i.d. group), week 4
[9] = 2 × 50 mg (b.i.d. group), week 8
[10] = 2 × 50 mg (b.i.d. group), week 12
[11] = 2 × 100 mg (b.i.d. group), week 1

O=C(Nc1nc2cccc(-c3ccc(CN4CCS(=O)(=O)CC4)cc3)n2n1)C1CC1 [Compound 1, cyclopropanecarboxylic acid {5-[4-(1,1-dioxo-thiomorpholin-4-ylmethyl)-phenyl]-[1,2,4]triazolo[1,5-a]pyridin-2yl}-amide]
Atherogenic index Median CFB - 12 weeks results (100 mg q.d., week 12): -0.10 mmol/L | Atherogenic index Mean CFB - 24 weeks results (week 1): -0.17 mmol/L | Atherogenic index Mean percentage CFB - 24 weeks results (week 1): −2.63% | Atherogenic index Median CFB - 24 weeks results (week 1): -0.10 mmol/L | Atherogenic index Mean CFB - 24 weeks results (week 2): -0.35 mmol/L | Atherogenic index Mean percentage CFB - 24 weeks results (week 2): −7.45% | Atherogenic index Median CFB - 24 weeks results (week 2): -0.25 mmol/L | Atherogenic index Mean CFB - 24 weeks results (week 4): -0.37 mmol/L | Atherogenic index Mean percentage CFB - 24 weeks results (week 4): −7.97% | Atherogenic index Median CFB - 24 weeks results (week 4): -0.30 mmol/L | Atherogenic index Mean CFB - 24 weeks results (week 8): -0.36 mmol/L | Atherogenic index Mean percentage CFB - 24 weeks results (week 8): −7.92% | Atherogenic index Median CFB - 24 weeks results (week 8): -0.30 mmol/L | Atherogenic index Mean CFB - 24 weeks results (week 12): -0.35 mmol/L | Atherogenic index Mean percentage CFB - 24 weeks results (week 12): −6.85% | Atherogenic index Median CFB - 24 weeks results (week 12): -0.30 mmol/L | Atherogenic index Mean CFB - 24 weeks results (week 16): -0.40 mmol/L | Atherogenic index Mean percentage CFB - 24 weeks results (week 16): −8.14% | Atherogenic index Median CFB - 24 weeks results (week 16): -0.40 mmol/L | Atherogenic index Mean CFB - 24 weeks results (week 20): -0.48 mmol/L | Atherogenic index Mean percentage CFB - 24 weeks results (week 20): −8.84% | Atherogenic index Median CFB - 24 weeks results (week 20): -0.40 mmol/L | Atherogenic index Mean CFB - 24 weeks results (week 24): -0.34 mmol/L | Atherogenic index Mean percentage CFB - 24 weeks results (week 24): −6.14% | Atherogenic index Median CFB - 24 weeks results (week 24): -0.30 mmol/L | Atherogenic index Mean CFB (200 mg q.d., week 1): -0.17 mmol/L | Atherogenic index Mean percentage CFB - 12 weeks results (200 mg q.d., week 1): −3% | Atherogenic index Median CFB - 12 weeks results (200 mg q.d., week 1): -0.10 mmol/L | Atherogenic index Mean CFB (200 mg q.d., week 2): -0.35 mmol/L | Atherogenic index Mean percentage CFB - 12 weeks results (200 mg q.d., week 2): −7% | Atherogenic index Median CFB - 12 weeks results (200 mg q.d., week 2): -0.25 mmol/L | Atherogenic index Mean CFB (200 mg q.d., week 4): -0.37 mmol/L | Atherogenic index Mean percentage CFB - 12 weeks results (200 mg q.d., week 4): −8% | Atherogenic index Median CFB - 12 weeks results (200 mg q.d., week 4): -0.30 mmol/L | Atherogenic index Mean CFB (200 mg q.d., week 8): -0.36 mmol/L | Atherogenic index Mean percentage CFB - 12 weeks results (200 mg q.d., week 8): −8% | Atherogenic index Median CFB - 12 weeks results (200 mg q.d., week 8): -0.30 mmol/L | Atherogenic index Mean CFB (200 mg q.d., week 12): -0.35 mmol/L | Atherogenic index Mean percentage CFB - 12 weeks results (200 mg q.d., week 12): −7% | Atherogenic index Median CFB - 12 weeks results (200 mg q.d., week 12): -0.30 mmol/L | Atherogenic index Mean CFB [1]: 0.07 mmol/L | Atherogenic index Mean percentage CFB - 12 weeks results [1]: 3% | Atherogenic index Median CFB - 12 weeks results [1]: 0.10 mmol/L | Atherogenic index Mean CFB [2]: -0.03 mmol/L | Atherogenic index Mean percentage CFB - 12 weeks results [2]: 0% | Atherogenic index Median CFB - 12 weeks results [2]: -0.10 mmol/L | Atherogenic index Mean CFB [3]: -0.04 mmol/L | Atherogenic index Mean percentage CFB - 12 weeks results [3]: 0% | Atherogenic index Median CFB - 12 weeks results [3]: 0.00 mmol/L | Atherogenic index Mean CFB [4]: -0.08 mmol/L | Atherogenic index Mean percentage CFB - 12 weeks results [4]: −1% | Atherogenic index Median CFB - 12 weeks results [4]: -0.10 mmol/L | Atherogenic index Mean CFB [5]: 0.00 mmol/L | Atherogenic index Mean percentage CFB - 12 weeks results [5]: 2% | Atherogenic index Median CFB - 12 weeks results [5]: -0.10 mmol/L | Atherogenic index Mean CFB [6]: -0.06 mmol/L | Atherogenic index Mean percentage CFB - 12 weeks results [6]: 0% | Atherogenic index Median CFB - 12 weeks results [6]: 0.00 mmol/L | Atherogenic index Mean CFB [7]: -0.21 mmol/L | Atherogenic index Mean percentage CFB - 12 weeks results [7]: −5% | Atherogenic index Median CFB - 12 weeks results [7]: -0.10 mmol/L | Atherogenic index Mean CFB [8]: -0.14 mmol/L | Atherogenic index Mean percentage CFB - 12 weeks results [8]: −3% | Atherogenic index Median CFB - 12 weeks results [8]: -0.10 mmol/L | Atherogenic index Mean CFB [9]: -0.18 mmol/L | Atherogenic index Mean percentage CFB - 12 weeks results [9]: −3% | Atherogenic index Median CFB - 12 weeks results [9]: -0.10 mmol/L | Atherogenic index Mean CFB [10]: -0.07 mmol/L | Atherogenic index Mean percentage CFB - 12 weeks results [10]: −1% | Atherogenic index Median CFB - 12 weeks results [10]: 0.00 mmol/L | Atherogenic index Mean CFB [11]: -0.05 mmol/L | Atherogenic index Mean percentage CFB - 12 weeks results [11]: 0% | Atherogenic index Median CFB - 12 weeks results [11]: 0.00 mmol/L | Atherogenic index Mean CFB (2 × 100 mg (b.i.d. group), week 2): -0.19 mmol/L
